The results in this text go back to US4643734A, “Lactide/caprolactone polymer, method of making the same, composites thereof, and prostheses produced therefrom” (Hexcel Corporation, priority 1983, dated 1987).

Assay type in all cases: cell-based
In series [1] the test system is Salmonella typhimurium TA 1535. Put plainly: Ames plate incorporation assay, TA1535. The method, then:
(§1) A Salmonella/mammalian mutagenicity test was performed to determine if a saline extract of the polymer would cause mutagenic changes in histidine dependent mutant strains of Salmonella typhimurium. The method of Ames et al as reported in Methods for Detecting Carcinogens and Mutagens with the Salmonella/Mammalian Mutagenicity Test (1975) was employed.
(§2) Test sample--a polymer, saline (0.85%) extract was prepared by adding 4 grams of sample to 20 ml of saline and autoclaving at 121° C. for one hour.
(§3) Bacterial test strains--four strains of specially constructed histidine mutants of Salmonella typhimurium, TA 98, TA 100, TA 1535 and TA 1537, developed by Dr. B. Ames, University of California, Berkeley were employed.
(§4) Activation system--S-9 Activation Mix is composed mainly of the microsomal fraction from a rat liver homogenate. The S-9 mix was used for the detection of mutagenic properties that require metabolic biotransformation to their active mutagenic form. […]
(§5) Ames plate incorporation assay--the principle technique of the Ames test consists of a plate incorporation assay from which direct revertant colony counts are obtained from the test plates. […] Following a 48 hour incubation period at 30° C., the number of colonies in each test plate are recorded as revertant colonies for comparison with spontaneous revertant rates for each strain.

Series [2] has as its system Salmonella typhimurium TA 100. Put plainly: Ames plate incorporation assay, TA100. The method, then: as §1, §2, §3
Activation system--S-9 Activation Mix is composed mainly of the microsomal fraction from a rat liver homogenate. The S-9 mix was used for the detection of mutagenic properties that require metabolic biotransformation to their active mutagenic form. S-9 mix employed was Aroclor 1254--induced(Litton Bionetics, Inc., Kensington, Md., Lot #REL 091).
Negative controls--the solvent elution vehicle was test with each bacterial strain to determine the number of spontaneous revertant colonies for each test population.
MDA requires metabolic activation to induce mutagenic results; therefore, it was tested (on strain TA 100 only) with and without S-9 mix to verify the bioactivation properties of the S-9 rat liver preparation.
Ames plate incorporation assay--the principle technique of the Ames test consists of a plate incorporation assay from which direct revertant colony counts are obtained from the test plates. Minimal nutrient agar plates are seeded with both a tester strain population and the test solution suspended together in a semi-solid overlay. Test plates are prepared providing for either the presence or absence of S-9 activation mix supplemented in the overlay. Following a 48 hour incubation period at 30° C., the number of colonies in each test plate are recorded as revertant colonies for comparison with spontaneous revertant rates for each strain.

Series [3] has as its system Salmonella typhimurium TA 98. Put plainly: Ames plate incorporation assay, TA98. The method, then:
as §1, §2, §3, §4, §5

In series [4] the test system is Salmonella typhimurium TA 1537. Put plainly: Ames plate incorporation assay, TA1537. The protocol: as §1, §2, §3, §4, §5

Take `CN(C)c1ccc(N=NS(=O)(=O)[O-])cc1.[Na+]` [Dexon]: the “Number of Revertant Colonies (Average of Duplicate Plates)” value (from here on “Number of Revertant Colonies”) in series [1] (TA1535, w/S-9) is on record as 26.5; in series [1] (TA1535, without S-9), 28.0; in series [2] (TA100, w/S-9), 388.5; in series [2] (TA100, without S-9), 377.0; in series [3] (TA98, w/S-9) it was 430.0; in series [3] (TA98, without S-9) it was 422.0. The “Number of Revertant Colonies” value in series [4] (TA1537, w/S-9) was determined as 230.0; in series [4] (TA1537, without S-9), 216.0.

Consider `Nc1ccc(Cc2ccc(N)cc2)cc1` [MDA, methylene dianiline], for which the “Number of Revertant Colonies” value was 223.0 in series [2] (TA100, w/S-9) and 73.0 in series [2] (TA100, without S-9).
